Data: US20050272636A1, “Treatment and diagnosis of a reproductive disorder by measuring or inhibiting interferon-gamma” (Adelaide Research & Innovation Pty Ltd., priority 2002, published 2005)

Key:
IFNγ = assay: Inhibitors and antagonists counteracting the GM-CSF-inhibiting actions of IFNγ in uterine epithelial cells (Example 3); assay type: cell-based, mouse; settings: added in combination with IFNγ; dose-responsive, 5 ng/ml greater effect than 0.5 ng/ml
Procedure: Several inhibitors and antagonists of IFNγ were tested for their ability to counteract the GM-CSF-inhibiting actions of IFNγ in epithelial cells.
Uterine Epithelial Cell Cultures. Uterine epithelial cells prepared by pancreatin-trypsin digest as previously described (Robertson et al., (1992) Biol. Reprod. 46:1069-1079) were pooled from 4-6 estrous adult C57B1/6×CBA F1 female mice and plated in 1 ml culture wells (Nunc, Roskilde, Germany) at 1-2×10^5 cells per ml in 500 μl of RPMI containing 10% FCS and streptomycin (RPMI-FCS). Penicillin was omitted from culture media except where specified. After 4 h incubation at 37° C. in 5% CO2 to allow cell adherence, a further 500 μl of cytokines or antibodies in RPMI-FCS, or RPMI-FCS alone, were added. Cytokine treatments included recombinant mouse interferon-γ (rmIFNγ; R&D Systems), recombinant human transforming growth factor β1 (rhTGFβ1, R&D Systems), rhTGFβ2 (R&D Systems), rhTGFβ3 (OSI Pharmaceuticals). Antibody treatments included goat anti-mouse IFNγ receptor 1 (αIFNγR; R&D Systems AF1026) and hamster anti-mouse IFNγ (αIFNγ; R&D Systems MAB4851). Culture supernatants were collected and replaced with fresh complete RPMI-FCS alone at 16 hours, then collected again 24 hours later, at which time adherent cells were quantified as previously described (Robertson et al., (1992) Biol. Reprod. 46:1069-1079). The GM-CSF content of 24 h supernatants was determined by GM-CSF bioassay or immunoassay. All treatments were performed in duplicate or triplicate.
GM-CSF bioassay and immunoassay: Bioactive GM-CSF was assayed using the GM-CSF dependant cell line FD 5/12, essentially as previously described (Robertson et al., (1992) Biol. Reprod. 46:1069-1079). Cell proliferation was determined by the addition of 1 μCi of [^3H]-thymidine per well for the last 6 h of the assay. The minimal detectable amount of GM-CSF was […] The identity of the bioactivity in uterine epithelial cell cultures was confirmed using a goat polyclonal antibody to murine GM-CSF kindly provided by J. Schreurs (DNAX, Palo Alto, Calif.) as previously described (Robertson et al., (1992) Biol. Reprod. 46:1069-1079). GM-CSF immunoactivity was in some experiments measured by commercial mouse GM-CSF specific ELISA (R & D Systems) according to the manufacturer's instructions.

mice = assay: Effect of IFN-γ treatment on pregnancy outcome in mice (Example 8); assay type: in vivo; settings: implantation rate, viable versus resorbing fetuses, fetal and placental weight on day 18
Procedure: Mice are housed under specific pathogen-free conditions at the University of Adelaide Medical School Animal House on a 12:12 light-dark cycle, and administered food and water ad libitum. Adult Balb/c×C57B1/6 F1 females (7-10 weeks old) are synchronised into estrus by caging in close proximity to males. Estrus is identified on the basis of presence of cornified epithelial cells in vaginal smears prepared at 0900-1000 h daily and examined by phase contrast microscopy. On the day of estrus (day 0) females are caged with proven fertile Balb/k males for natural mating. The day of sighting a vaginal plug is nominated day 1 of pregnancy.
Mice are randomly allocated to one of four groups and treated as follows: Group 1 (100 ng IFN-γ) mice receive three intraperitoneal injections of […] recombinant mouse IFN-γ (rmIFN-γ, R&D Systems) in 200 μl PBS containing 1% bovine serum albumin (PBS-BSA) at 1700 h on day 0, at 1000 h on day 1 and 1700hon day 1.
Group 2 (250 ng IFN-γ) receive three injections of 250 ng rmIFN-γ according to the same time schedule.
Group 3 (control) receive three injections of PBS-BSA instead of IFN-γ according to the same time schedule.
Group 4 (comparison) Mice are mated but otherwise remain untreated.
Twenty mice per group are used to ensure statistical significance in treatment effects.
Alternatively, a transcervical delivery route for IFN-γ is used. Treatments are delivered directly into the uterine lumen with the aid of a tom-cat catheter (Sovereign, St Louis Mo.). In mated animals this requires removal of vaginal plugs using forceps to allow transcervical access. Mice are randomly allocated to one of four groups and treated as follows: the first group (100 ng IFN-γ) mice receive three transcervical injections of […] recombinant mouse IFN-γ (rmIFN-γ, R&D Systems) in 200 μl PBS containing 1% bovine serum albumin (PBS-BSA) at 1700 h on day 0, at 1000 h on day 1 and 1700 h on day 1. The second group (25 ng IFN-γ) receive three injections of 25 ng rmIFN-γ according to the same time schedule. The third group (control) receive three injections of PBS-BSA instead of IFN-γ according to the same time schedule. For comparison, a fourth group of mice are mated but otherwise would remain untreated. Twenty mice per group are used to ensure statistical significance in treatment effects.
Pregnant females are sacrificed by cervical dislocation at 1000 h -1200 h on day 18 of gestation. The intact uterus of each female is removed and total, viable and resorbing implantation sites counted. Each viable fetus is dissected from the amniotic sac and umbilical cord, and fetuses and placentae weighed. Placental tissues are fixed in paraformaldehyde and processed for histological staining of paraffin sections, using Masson's trichrome stain.

Substance: rhTGFβ1: recombinant human transforming growth factor β1 (R&D Systems)
- effect of TGFβ isoform on the inhibitory effect of IFNγ on GM-CSF synthesis (IFNγ): counteracted the inhibitory effect
- effect on the detrimental effects of IFN-γ on pregnancy outcome (mice): reverses the detrimental effects of IFN-γ
